Measurements reported in patent publication US9682060B2, “Small molecules that induce intrinsic pathway apoptosis” (The Board of Trustees of the University of Illinois, priority 2015, dated 2017).
“Also recorded” adds a separate entry of the source.

Experiments:
HL-60 VCR = test: Raptinal toxicity in various cell lines, 24 hour IC50; assay type: cell-based; details: HL60/VCR; HL-60 VCR (Human Leukemia Vincristine Resistant); 24 hour incubation; mean ± SD
Experimental: (§1) MTS Assay for Suspension Cells.
(§2) Serial dilutions of compound in 100% DMSO were added in triplicate (2 μL to each well) to empty wells of a 96-well plate. Suspension cells (HL-60, U-937, SKW 6.4, Jurkat W T, Jurkat CASP8^−/−, Jurkat FADD^−/−, Jurkat Bcl-2) cells in RPMI 1640 media were added to 96-well plates (198 μL containing 4×10^4 cells) and the cells incubated for 24 hours.

Jurkat cells = test: AV/PI assay in Jurkat cell lines (WT, caspase-8 deletion, FADD deletion, Bcl-2 upregulation); assay type: cell-based, Human; details: 10 μM, 2 hours
[1] = tested on: cancer cell lines (HL-60, SK-MEL-5, U-937); test: Initial screens against cancer cell lines; assay type: cell-based, Human
[2] = Pharmacokinetic profiling in mice; assay type: in vivo, C57BL/6 mice; details: 37.5 mg/kg intravenously
Experimental: Pharmacokinetics and Toxicity Profiling in Mice.
All animal studies were performed with prior approval by the University of Illinois at Urbana-Champaign IACUC committee. Eight week old female C57BL/6 mice were used for all pharmacokinetic and toxicity experiments. […]. For toxicity assessment, Raptinal was administered intravenously as a single-dose injection across a dose range of 15-60 mg/kg, and mice were sacrificed 7 days post-injection for evidence of hematologic toxicity (n=3 mice/group).

4T1 breast cancer = test: Syngeneic subcutaneous tumor model; assay type: in vivo, BALB/c mice; details: 4T1 model; 20 mg/kg IP once daily for 4 days
Experimental: All animal studies were performed with prior approval by the University of Illinois at Urbana-Champaign IACUC committee. […]. Seven days (for B16-F10) and six days (for 4T1) after inoculation, the mice were randomized based upon tumor size with 7 mice per group. Vehicle or compound was administered intraperitoneally as a corn oil DMSO suspension (300 μL of 10% DMSO in trans fat-free corn oil, 20 mg/kg) once daily for 3 consecutive days for B16-F10 and 4 consecutive days for 4T1 models. Tumor measurements were performed every other day using a caliper and tumor volume was calculated using the equation (0.5×l×w^2).

[3] = tested on: isolated mitochondria (U-937 cells); test: In vitro cytochrome c release from isolated mitochondria; assay type: biochemical, Human; details: respiring and non-respiring conditions, 30 min, Western blot
Experimental: In Vitro Cytochrome c Release from Isolated Mitochondria.
U-937 cells (120×10^6) were washed twice in PBS and resuspended in 800 μL ice-cold lysis buffer (50 mM HEPES, 5 mM DTT, 5 mM PMSF, 25 mM MgCl2, protease cocktail inhibitor, pH 7.5) and the cells were passed through a 26 gauge needle 26 times using a 1 mL syringe until >95% cells were lysed as determined by trypan blue. Isolation buffer (0.25 M sucrose in lysis buffer pH 7.5) was added to the lysed cells (2.4 mL) and mixed by inversion. Debris was removed by centrifugation (500×g. 10 min at 4° C.) and the mitochondria in the supernatant were pelleted by centrifugation (10000×g, 5 min at 4° C.). The mitochondrial pellet was resuspended in washing buffer (2 mL of 50 mM HEPES, 250 mM KCl, 25 mM EDTA, pH 7.5) and incubated on ice for 2 min and centrifuged (12500×g, 5 min). The mitochondrial pellet was resuspended in either non-respiration (300 μL of 50 mM HEPES, 5 mM DTT, 5 mM PMSF, 25 mM MgCl2, protease inhibitor, 250 mM KCl, 25 mM EDTA, pH 7.5) or respiration buffer (300 μL of 50 mM HEPES, […], 5 mM ATP, 0.4 mM ADP, 25 mM sodium succinate, 10 mM potassium phosphate dibasic, pH 7.5). […]

[4] = tested on: various cancer and non-cancerous cell lines; test: 24 hour IC50 across various cancer and non-cancerous cell lines; assay type: cell-based; details: various cancer and non-cancerous cell lines (Table 1, FIG. 4D)
Experimental: as §1, §2
Sulforhodamine B Assay for Adherent Cells.
Serial dilutions of compound in 100% DMSO were added in triplicate (2 μL to each well) to empty wells of a 96-well plate. Adherent cells (3T3, Hs888Lu, MCF-7, HeLa, WT-MEF, 4T1, B16-F10, SK-MEL-5, MIA PaCa2, BT-549, MDA-MB-436, 143B, HOS, H460, H1993) cells were added to each well (5×10^3 cells in 198 μL of RPMI 1640, DMEM or EMEM media). The plates were incubated for 24 hours. The media was removed from the plate and ice-cold trichloroacetic acid (100 μL of 10% w/v trichloroacetic acid) was added to the plates which were then incubated at 4° C. overnight to fix the cells. […] The bound dye was released by the addition of unbuffered Tris-base (200 μL of 10 mM solution) and after a 30 min incubation at room temperature the absorbance at 510 nm was measured (Molecular Devices SpectraMax Plus 384 plate reader). The mean IC50 values and standard deviations were determined from three independent experiments.

HL-60 = test: Raptinal toxicity, 24 hour IC50 (MTS assay for suspension cells); assay type: cell-based; details: HL-60 (Human Leukemia); 24 hour incubation; mean ± SD
Experimental: as §1, §2

SKW 6.4 = test: as above; assay type: cell-based; details: SKW 6.4 (Human Lymphoma); 24 hour incubation; mean ± SD
Experimental: as §1, §2

Jurkat = test: as above; assay type: cell-based; details: Jurkat (Human Leukemia); 24 hour incubation; mean ± SD
Experimental: as §1, §2

U-937 = test: as above; assay type: cell-based; details: U-937 (Human Lymphoma); 24 hour incubation; mean ± SD
Experimental: as §1, §2

## O=CC1(C2(C=O)c3ccccc3-c3ccccc32)c2ccccc2-c2ccccc21 [Raptinal, [9,9′]bifluorenyl-9,9′-dicarbaldehyde]
HL-60 VCR
  IC50: 1.6 ± 0.5 µM
Jurkat cells
  sensitivity of Jurkat Bcl-2 overexpressing versus wild type cells: less susceptible; also recorded: partial resistance
  sensitivity of Jurkat caspase-8−/− versus wild type cells: equally susceptible; also recorded: equally as sensitive
[1]; Homo sapiens, HL-60, SK-MEL-5, U-937, 24 hour assays
  IC50: 0.15 to 0.7 µM
[1]; cancer cells treated 1 hour, extensive washing to remove compound, read at 24-hour mark
  cell death after short treatment and washout: significant cell death
[2]
  peak plasma concentration: 134.5 ± 2.2 µM
[2]; mean ± SD, n=3
  peak plasma concentration: 54.4 ± 0.9 µg/mL
[2]; female, C57BL/6, mouse, in vivo, iv, mean ± SD, n=3, read-out: elimination half-life
  half-life: 1.53 ± 0.0967 h
4T1 breast cancer
  growth inhibition: 50%
[3]
  cytochrome c release from isolated mitochondria: does not induce cytochrome c release; also recorded: did not directly induce cytochrome c release
[4]
  IC50: 0.7 to 3.4 µM
HL-60
  IC50: 2.1 ± 1.4 µM
SKW 6.4
  IC50: 1.1 ± 0.1 µM
Jurkat
  IC50: 2.7 ± 0.9 µM
U-937
  IC50: 0.7 ± 0.3 µM
